# Assay results from publication PMC5224920, “Assessing the mechanism and therapeutic potential of modulators of the human Mediator complex-associated protein kinases” (eLife, 2016).
# System: 12 single or co-culture in vitro tissue models of primary cells
# Experiment: Culture/co-culture cell model panel, extracellular biomarkers (DiscoveRx); for CCL2/MCP-1: reference of the scale not given here; for CXCL8/IL-8: reference of the scale not given here; for CXCL9/MIG: reference of the scale not given here; for IL-1alpha: reference of the scale not given here; for M-CSF: reference of the scale not given here; for PBMC Cytotoxicity: reference of the scale not given here; for SRB: reference of the scale not given here; for sTNF-alpha: reference of the scale not given here
# Type: cell-based, human
# Conditions: for B cell Proliferation / PBMC Cytotoxicity / Secreted IgG / sIL-2 / sIL-6 / sIL-17A / sIL-17F / sTNF-alpha: BT
# [1] = HDF3CGF stimulated fibroblasts, 1.00E0 nM
# [2] = HDF3CGF stimulated fibroblasts, 1.00E1 nM
# [3] = HDF3CGF stimulated fibroblasts, 1.00E2 nM
# [4] = HDF3CGF stimulated fibroblasts, 1.00E3 nM
smiles,measurement,setting,value
CN1c2ccc(-c3cncc(Cl)c3N3CCC4(CC3)CNC(=O)O4)cc2CS1(=O)=O [CMPD2],SRB,"BENo, 1.00E3 nM",0.003
same,tPA,"BENo, 1.00E3 nM",0.049
same,uPA,"BENo, 1.00E3 nM",0.021
same,CCL26/Eotaxin-3,"BENo, 1.00E4 nM",0.048
same,CD54/ICAM-1,"BENo, 1.00E4 nM",-0.033
same,CD87/uPAR,"BENo, 1.00E4 nM",0.057
same,CXCL8/IL-8,"BENo, 1.00E4 nM",0.016
same,CXCL9/MIG,"BENo, 1.00E4 nM",0.075
same,CXCL10/IP-10,"BENo, 1.00E4 nM",0.073
same,CXCL11/I-TAC,"BENo, 1.00E4 nM",0.025
same,EGFR,"BENo, 1.00E4 nM",0.043
same,HLA-DR,"BENo, 1.00E4 nM",0.040
same,IL-1alpha,"BENo, 1.00E4 nM",-0.020
same,Keratin 8/18,"BENo, 1.00E4 nM",0.022
same,MMP-1,"BENo, 1.00E4 nM",0.039
same,MMP-9,"BENo, 1.00E4 nM",0.031
same,PAI-I,"BENo, 1.00E4 nM",-0.100
same,SRB,"BENo, 1.00E4 nM",0.001
same,tPA,"BENo, 1.00E4 nM",0.040
same,uPA,"BENo, 1.00E4 nM",-0.00475
same,CCL2/MCP-1,"BF4T, 1.00E0 nM",0.022
same,CCL26/Eotaxin-3,"BF4T, 1.00E0 nM",-0.032
same,CD54/ICAM-1,"BF4T, 1.00E0 nM",-0.00361
same,CD90,"BF4T, 1.00E0 nM",-0.036
same,CD106/VCAM-1,"BF4T, 1.00E0 nM",0.043
same,CXCL8/IL-8,"BF4T, 1.00E0 nM",0.040
same,IL-1alpha,"BF4T, 1.00E0 nM",0.007
same,Keratin 8/18,"BF4T, 1.00E0 nM",-0.001
same,MMP-1,"BF4T, 1.00E0 nM",0.030
same,MMP-3,"BF4T, 1.00E0 nM",0.082
same,MMP-9,"BF4T, 1.00E0 nM",0.039
same,PAI-I,"BF4T, 1.00E0 nM",-0.008
same,SRB,"BF4T, 1.00E0 nM",0.004
same,tPA,"BF4T, 1.00E0 nM",0.051
same,uPA,"BF4T, 1.00E0 nM",0.046
same,CCL2/MCP-1,"BF4T, 1.00E1 nM",-0.011
same,CCL26/Eotaxin-3,"BF4T, 1.00E1 nM",-0.107
same,CD54/ICAM-1,"BF4T, 1.00E1 nM",-0.027
same,CD90,"BF4T, 1.00E1 nM",-0.009
same,CD106/VCAM-1,"BF4T, 1.00E1 nM",0.033
same,CXCL8/IL-8,"BF4T, 1.00E1 nM",0.048
same,IL-1alpha,"BF4T, 1.00E1 nM",0.020
same,Keratin 8/18,"BF4T, 1.00E1 nM",-0.009
same,MMP-1,"BF4T, 1.00E1 nM",0.022
same,MMP-3,"BF4T, 1.00E1 nM",0.075
same,MMP-9,"BF4T, 1.00E1 nM",0.012
same,PAI-I,"BF4T, 1.00E1 nM",0.023
same,SRB,"BF4T, 1.00E1 nM",-0.00108
same,tPA,"BF4T, 1.00E1 nM",0.047
same,uPA,"BF4T, 1.00E1 nM",0.034
same,CCL2/MCP-1,"BF4T, 1.00E2 nM",-0.025
same,CCL26/Eotaxin-3,"BF4T, 1.00E2 nM",-0.086
same,CD54/ICAM-1,"BF4T, 1.00E2 nM",-0.020
same,CD90,"BF4T, 1.00E2 nM",0.002
same,CD106/VCAM-1,"BF4T, 1.00E2 nM",0.042
same,CXCL8/IL-8,"BF4T, 1.00E2 nM",0.050
same,IL-1alpha,"BF4T, 1.00E2 nM",0.00136
same,Keratin 8/18,"BF4T, 1.00E2 nM",0.009
same,MMP-1,"BF4T, 1.00E2 nM",0.008
same,MMP-3,"BF4T, 1.00E2 nM",0.053
same,MMP-9,"BF4T, 1.00E2 nM",0.008
same,PAI-I,"BF4T, 1.00E2 nM",0.039
same,SRB,"BF4T, 1.00E2 nM",4.82e-5
same,tPA,"BF4T, 1.00E2 nM",0.063
same,uPA,"BF4T, 1.00E2 nM",0.022
same,CCL2/MCP-1,"BF4T, 1.00E3 nM",-0.016
same,CCL26/Eotaxin-3,"BF4T, 1.00E3 nM",-0.102
same,CD54/ICAM-1,"BF4T, 1.00E3 nM",-0.022
same,CD90,"BF4T, 1.00E3 nM",-0.000476
same,CD106/VCAM-1,"BF4T, 1.00E3 nM",0.044
same,CXCL8/IL-8,"BF4T, 1.00E3 nM",0.047
same,IL-1alpha,"BF4T, 1.00E3 nM",-0.00456
same,Keratin 8/18,"BF4T, 1.00E3 nM",0.007
same,MMP-1,"BF4T, 1.00E3 nM",0.015
same,MMP-3,"BF4T, 1.00E3 nM",0.034
same,MMP-9,"BF4T, 1.00E3 nM",0.024
same,PAI-I,"BF4T, 1.00E3 nM",0.026
same,SRB,"BF4T, 1.00E3 nM",0.00277
same,tPA,"BF4T, 1.00E3 nM",0.071
same,uPA,"BF4T, 1.00E3 nM",0.023
same,CCL2/MCP-1,"BF4T, 1.00E4 nM",-0.034
same,CCL26/Eotaxin-3,"BF4T, 1.00E4 nM",-0.125
same,CD54/ICAM-1,"BF4T, 1.00E4 nM",-0.043
same,CD90,"BF4T, 1.00E4 nM",0.000654
same,CD106/VCAM-1,"BF4T, 1.00E4 nM",0.043
same,CXCL8/IL-8,"BF4T, 1.00E4 nM",0.030
same,IL-1alpha,"BF4T, 1.00E4 nM",-0.00143
same,Keratin 8/18,"BF4T, 1.00E4 nM",-0.023
same,MMP-1,"BF4T, 1.00E4 nM",0.010
same,MMP-3,"BF4T, 1.00E4 nM",0.027
same,MMP-9,"BF4T, 1.00E4 nM",-0.007
same,PAI-I,"BF4T, 1.00E4 nM",-0.013
same,SRB,"BF4T, 1.00E4 nM",0.000752
same,tPA,"BF4T, 1.00E4 nM",0.037
same,uPA,"BF4T, 1.00E4 nM",0.017
same,B cell Proliferation,1.00E0 nM,-0.010
same,PBMC Cytotoxicity,1.00E0 nM,0.032
same,Secreted IgG,1.00E0 nM,0.088
same,sIL-2,1.00E0 nM,0.154
same,sIL-6,1.00E0 nM,0.00536
same,sIL-17A,1.00E0 nM,-0.061
same,sIL-17F,1.00E0 nM,-0.213
same,sTNF-alpha,1.00E0 nM,0.097
same,B cell Proliferation,1.00E1 nM,-0.033
same,PBMC Cytotoxicity,1.00E1 nM,-0.030
same,Secreted IgG,1.00E1 nM,-0.163
same,sIL-2,1.00E1 nM,0.264
same,sIL-6,1.00E1 nM,0.057
same,sIL-17A,1.00E1 nM,0.173
same,sIL-17F,1.00E1 nM,-0.239
same,sTNF-alpha,1.00E1 nM,0.051
same,B cell Proliferation,1.00E2 nM,-0.057
same,PBMC Cytotoxicity,1.00E2 nM,-0.030
same,Secreted IgG,1.00E2 nM,-0.186
same,sIL-2,1.00E2 nM,0.109
same,sIL-6,1.00E2 nM,0.035
same,sIL-17A,1.00E2 nM,0.214
same,sIL-17F,1.00E2 nM,-0.485
same,sTNF-alpha,1.00E2 nM,0.059
same,B cell Proliferation,1.00E3 nM,-0.027
same,PBMC Cytotoxicity,1.00E3 nM,-0.033
same,Secreted IgG,1.00E3 nM,0.074
same,sIL-2,1.00E3 nM,0.068
same,sIL-6,1.00E3 nM,0.046
same,sIL-17A,1.00E3 nM,0.216
same,sIL-17F,1.00E3 nM,-0.463
same,sTNF-alpha,1.00E3 nM,0.076
same,B cell Proliferation,1.00E4 nM,-0.077
same,PBMC Cytotoxicity,1.00E4 nM,-0.046
same,Secreted IgG,1.00E4 nM,-0.114
same,sIL-2,1.00E4 nM,-0.00739
same,sIL-6,1.00E4 nM,-0.075
same,sIL-17A,1.00E4 nM,0.256
same,sIL-17F,1.00E4 nM,-0.594
same,sTNF-alpha,1.00E4 nM,0.009
same,CCL2/MCP-1,[1],-0.018
same,CD54/ICAM-1,[1],0.007
same,CD106/VCAM-1,[1],-0.010
same,CXCL8/IL-8,[1],-0.008
same,CXCL9/MIG,[1],-0.000757
same,CXCL10/IP-10,[1],0.037
same,CXCL11/I-TAC,[1],0.014
same,Collagen I,[1],0.035
same,Collagen III,[1],0.042
same,EGFR,[1],0.046
same,M-CSF,[1],-0.058
same,MMP-1,[1],0.070
same,PAI-I,[1],0.087
same,Proliferation_72hr,[1],-0.036
same,SRB,[1],0.000177
same,TIMP-1,[1],0.025
same,TIMP-2,[1],0.118
same,CCL2/MCP-1,[2],-0.070
same,CD54/ICAM-1,[2],-0.021
same,CD106/VCAM-1,[2],0.006
same,CXCL8/IL-8,[2],-0.045
same,CXCL9/MIG,[2],-0.030
same,CXCL10/IP-10,[2],0.050
same,CXCL11/I-TAC,[2],-0.011
same,Collagen I,[2],0.014
same,Collagen III,[2],0.091
same,EGFR,[2],-0.013
same,M-CSF,[2],-0.075
same,MMP-1,[2],0.050
same,PAI-I,[2],0.006
same,Proliferation_72hr,[2],-0.171
same,SRB,[2],-0.008
same,TIMP-1,[2],-0.010
same,TIMP-2,[2],0.117
same,CCL2/MCP-1,[3],-0.120
same,CD54/ICAM-1,[3],-0.051
same,CD106/VCAM-1,[3],0.051
same,CXCL8/IL-8,[3],-0.095
same,CXCL9/MIG,[3],-0.077
same,CXCL10/IP-10,[3],0.043
same,CXCL11/I-TAC,[3],-0.010
same,Collagen I,[3],0.00565
same,Collagen III,[3],0.086
same,EGFR,[3],-0.067
same,M-CSF,[3],-0.100
same,MMP-1,[3],0.024
same,PAI-I,[3],-0.00168
same,Proliferation_72hr,[3],-0.240
same,SRB,[3],0.000238
same,TIMP-1,[3],-0.059
same,TIMP-2,[3],0.121
same,CCL2/MCP-1,[4],-0.156
same,CD54/ICAM-1,[4],-0.066
same,CD106/VCAM-1,[4],0.036
same,CXCL8/IL-8,[4],-0.119
same,CXCL9/MIG,[4],-0.093
same,CXCL10/IP-10,[4],0.039
same,CXCL11/I-TAC,[4],-0.012
same,Collagen I,[4],0.040
same,Collagen III,[4],0.054
